≈ marks a conversion by molar mass, not a printed value.
What was measured:
MtbAdoK [1] = molecular target: T1, MtbAdoK (Mycobacterium tuberculosis, UniProt P9WID5); settings: read-out: Km for adenosine, previously reported values; cited from earlier work
Mtb mc^2 7000 = test: Antimycobacterial assay (MABA); type: cell-based; settings: Mycobacterium tuberculosis, Mtb mc^2 7000, MABA, 6 days + 2 days resazurin
MtbAdoK [2] = molecular target: T1, MtbAdoK; test: Steady-state kinetics of MtbAdoK; settings: versus adenosine
[3] = system: human dermal fibroblasts (HDF); test: in vitro; type: cell-based; settings: HDF cells
Experimental: HDFs were purchased from ATCC (Manassas, VA). HDF cells were cultured in DMEM (Lonza) media supplemented with 10.0% fetal bovine serum (Lonza) and penicillin/streptomycin (Lonza). For the cytotoxicity assay, compound stocks were serially diluted in phosphate-buffered saline plus 10.0% DMSO. On the day of assay, HDF cells were trypsinized, counted, and resuspended at a concentration of 64 000 cells/mL in media. Cells were plated, overlaid with the compound serial dilutions, and incubated at 37.0 °C. After 48.0 h, resazurin dye was added, and the assay plates cultured for another 24.0 h. On the next day, the absorbance of the resazurin was measured on a microplate reader to assess cell death. Cytotoxicity was determined as a percent control, and CC50 values for each compound were determined by utilizing eq 1.

[4] = type: in vivo; settings: female Swiss Webster mice, single oral dose 10 mg·kg^–1
Experimental: (§1) Eight-week old female ND4 Swiss Webster mice (∼28 g each) (Envigo, Indianapolis, IN) were used for PK and combination tolerability-snapshot PK studies. Compound 18 was formulated in 5% DMSO, 95% canola oil and administered as a single 100 μL oral gavage at 10 mg·kg^–1 for PK and as a 200 μL oral gavage at 50, 100, or 200 mg·kg^–1 QD × 3 days for tolerability-snapshot PK. Mice were anesthetized using isoflurane and 50 μL collected at 0, 0.25, 0.5, 1, 2, and 4 h survival bleed times for traditional PK or 0, 1, 4, and 24 h for tolerability-snapshot PK studies after the first administered dose. Around 200 μL was collected at 6, 8, and 24 h terminal bleed times for the traditional PK. Survival bleeds were drawn from the facial vein and terminal bleeds via cardiac puncture following CO2 asphyxiation.[35] Three mice were used per time point.

hAdoK = molecular target: T2, hAdoK (Homo sapiens, UniProt P55263); test: hAdoK enzymatic assay (pyruvate kinase–lactate dehydrogenase coupled), Ki determination; type: biochemical
T2 construct: His-tag with Tobacco Etch Virus (TEV) cleavage site (N); made in house; host or cells: Escherichia coli BL21 (DE3)

in vivo = test: in vivo; set-up: species or system Swiss Webster mice; settings: female, ND4 Swiss Webster, mouse, po
Experimental: as §1
Blood samples were centrifuged (3000g, 15 min) for plasma separation. Aliquots of plasma (10 μL) were extracted with two 500 μL equivalents of methanol containing 0.1% formic acid to ensure maximum recovery of compound 18 from plasma. The supernatant was collected from precipitated protein pellet following centrifugation (3000g, 5 min) and evaporated to dryness using a temperature-controlled Eppendorf Vacufuge at 30 °C for 4 h. The dry samples were reconstituted with 100 μL of methanol (1:10 original analyte dilution factor) spiked with 250 ng·mL^–1 verapamil (Sigma-Aldrich) as an internal standard and subjected to LC/MS analysis on a Bruker Daltronics micrOTOF-Q II mass spectrometer coupled with an Agilent 1200 Infinity series HPLC with temperature controlled autosampler (24 °C) and photodiode array detector. Standard solutions of compound 18 ranging from 1000 to 7.8125 ng·mL^–1 spiked into mouse control plasma was also analyzed to generate a calibration curve corrected for matrix effects. A linear regression generated from calibration samples was used to quantify samples.[34] The LOD of the LC/MS method was approximately 2 ng·mL^–1. A 4.6 × 100 mm Kinetex 2.6 μm EVO C18 100 Å column at a flow rate of 0.5 mL·min^–1 was used in the analysis. The mobile phase consisted of water containing 0.1% formic acid as solvent A and acetonitrile with 0.1% formic acid as solvent B. The gradient conditions were maintained as follows: 90% A, 10% B to 100% B in 8 min; 100% held for 4 min as a washing step; 100% B back to 90% A in 2 min; 90% A, 10% B held for 3 min to reset and equilibrate the column. Each analytical run was automatically calibrated using a secondary line injection of 10 μL of sodium acetate external standard at 13 min. The injection volume of the analyte was 10 μL, and MS was operated in positive mode with electrospray ionization at source. Mass spectra were monitored in a range of 50–1000m/z. Data were processed using DataAnalysis 4.1 and QuantAnalysis (Bruker Daltronics).

MtbAdoK [5] = molecular target: T1, MtbAdoK; test: MtbAdoK enzymatic assay (pyruvate kinase–lactate dehydrogenase coupled), IC50 and Ki determination; type: biochemical; settings: Cheng–Prusoff for competitive inhibition; 15.0 μM adenosine; ± SD of 2 experiments
Mtb H37Rv WT = test: microbe, parasite or virus in culture; type: cell-based; settings: Mycobacterium tuberculosis

T1 sequence (P9WID5 whole entry, looked up): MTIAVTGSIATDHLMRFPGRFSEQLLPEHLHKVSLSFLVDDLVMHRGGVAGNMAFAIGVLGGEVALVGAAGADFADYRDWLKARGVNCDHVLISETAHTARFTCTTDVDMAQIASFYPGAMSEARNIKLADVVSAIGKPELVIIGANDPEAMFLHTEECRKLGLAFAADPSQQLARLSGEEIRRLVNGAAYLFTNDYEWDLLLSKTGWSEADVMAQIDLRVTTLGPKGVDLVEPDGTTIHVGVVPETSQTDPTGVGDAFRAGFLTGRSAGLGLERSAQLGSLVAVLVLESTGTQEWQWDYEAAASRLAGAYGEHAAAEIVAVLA
T2 sequence (P55263 1-345 isoform P55263-2): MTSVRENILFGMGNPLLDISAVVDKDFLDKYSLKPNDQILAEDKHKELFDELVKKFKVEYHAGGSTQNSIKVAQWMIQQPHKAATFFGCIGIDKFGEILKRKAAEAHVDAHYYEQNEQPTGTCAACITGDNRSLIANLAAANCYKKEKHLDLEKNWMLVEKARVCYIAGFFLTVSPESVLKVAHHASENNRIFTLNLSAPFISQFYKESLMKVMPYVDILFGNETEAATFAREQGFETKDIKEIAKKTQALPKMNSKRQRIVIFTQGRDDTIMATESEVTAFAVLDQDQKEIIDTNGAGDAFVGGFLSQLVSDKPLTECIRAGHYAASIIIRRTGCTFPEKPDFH

In the case of `Nc1ncnc2c1ncn2[C@@H]1O[C@H](CO)[C@@H](O)[C@H]1O` [Compound 1, adenosine], the Km (MtbAdoK [1]) is listed as 0.8 to 3.4 µM.
With `OC[C@H]1O[C@@H](n2cnc3c(N4CCN(c5ccc(-c6ccccc6)cc5)CC4)ncnc32)[C@H](O)[C@@H]1O` [Compound 18, (2R,3R,4S,5R)-2-(6-(4-([1,1′-Biphenyl]-4-yl)piperazin-1-yl)-9H-purin-9-yl)-5-(hydroxymethyl)tetrahydrofuran-3,4-diol] the EC50 (Mtb mc^2 7000; 192 h) was roughly 4 µM, the EC50 (Mtb mc^2 7000) was 4 ± 0.2 µM and the mode of inhibition (MtbAdoK [2]) was “competitive”. For the same molecule, the “cytotoxicity (in words)” value [3] was “no cytotoxicity”, the tolerability [4] was “well tolerated” and the “activity against hAdoK (in words)” value (hAdoK) was “no activity against hAdoK”. For the same molecule, the Ki (hAdoK; Cheng–Prusoff, ± SD of 2 experiments) was greater than 50 µM, the AUC(0-t) (in vivo; 10 mg/kg) was 1800 ng·h/mL and the Cmax (in vivo; 10 mg/kg) was 130 ± 20 ng/mL. It also gave a Tmax (in vivo; 10 mg/kg) of roughly 4 h, an AUC (in vivo; 50 mg/kg) of 9800 ng·h/mL and a Tmax (in vivo; 50 mg/kg) of roughly 4 h. For the same molecule, the AUC (in vivo; 100 mg/kg) was 15300 ng·h/mL, the Tmax (in vivo; 100 mg/kg) was roughly 4 h and the AUC (in vivo; 200 mg/kg) was 23200 ng·h/mL. It also gave a Tmax (in vivo; 200 mg/kg) of roughly 4 h and a Ki (MtbAdoK [5]) of 0.0053 ± 7e-05 µM.
With `Nc1ncnc2c1c(I)cn2[C@@H]1O[C@H](CO)[C@@H](O)[C@H]1O` [Compound 2, Iodotubercidin] the MIC (Mtb H37Rv WT) was 18 ± 10 µM (≈ 7.06 µg/mL).

Reference: paper PMC6511943, “Structure-Guided Drug Design of 6-Substituted Adenosine Analogues as Potent Inhibitors of Mycobacterium tuberculosis Adenosine Kinase” (Journal of Medicinal Chemistry, 2019)
